In ChEMBL document CHEMBL3885861, “Open TG-GATES”:

Organism: Rattus norvegicus
Assay: Open TG-GATES - Regimen: Daily Repeat
Format: toxicity, organism-based, Sprague-Dawley
Parameters: regimen Daily Repeat, gender Male, age 6 weeks
Details: in vivo, po, 300 mg/kg, route gavage, dose level Low; for APTT / Bas / Eos / Fbg / Hb / Ht / Lym / MCH / MCHC / MCV / Mono / Neu / PT / Plat / RBC / Ret / WBC: tissue Blood; for KIDNEY_L / KIDNEY_R / KIDNEY_TOTAL: tissue Kidney; for LIVER: tissue Liver; for A/G / ALP / ALT / AST / BUN / CRE / Ca / Cl / DBIL / GLC / IP / K / LDH / Na / PL / RALB / TBIL / TC / TG / TP / gamma-GTP: tissue Plasma

With `COc1ccc(O)c(C(C)(C)C)c1.COc1ccc(O)cc1C(C)(C)C` [BUTYLATED HYDROXYANISOLE] the TERMINAL_BW (72 h, time 3 day) was 219.2 g, the APTT (72 h, time 3 day) was 15.4 s and the Bas (72 h, time 3 day) was 0.3%. The Eos (72 h, time 3 day) was 1.2%, the Fbg (72 h, time 3 day) was 275.8 mg/dL and the Hb (72 h, time 3 day) was 12.7 g/dL. For the same compound, the Ht (72 h, time 3 day) was 37.2%, the Lym (72 h, time 3 day) was 78.2% and the MCH (72 h, time 3 day) was 20.4 pg. For the same compound, the MCHC (72 h, time 3 day) was 34.2%, the MCV (72 h, time 3 day) was 59.9 fL and the Mono (72 h, time 3 day) was 2.2%. The Neu (72 h, time 3 day) was 17.1%, the PT (72 h, time 3 day) was 11.5 s and the Plat (72 h, time 3 day) was 148 x10_4/uL. It also gave an RBC (72 h, time 3 day) of 623.6 x10_4/ul, a Ret (72 h, time 3 day) of 4.9% and a WBC (72 h, time 3 day) of 112 x10_2/uL. It also gave a KIDNEY_L (72 h, time 3 day) of 0.9 g, a KIDNEY_R (72 h, time 3 day) of 0.9 g and a KIDNEY_TOTAL (72 h, time 3 day) of 1.7 g. For the same compound, the LIVER (72 h, time 3 day) was 12.2 g, the A/G (72 h, time 3 day) was 0.8 and the ALP (72 h, time 3 day) was 1525.6 IU/L. For the same compound, the ALT (72 h, time 3 day) was 36.4 IU/L, the AST (72 h, time 3 day) was 64.8 IU/L and the BUN (72 h, time 3 day) was 15.8 mg/dL. The CRE (72 h, time 3 day) was 0.2 mg/dL, the Ca (72 h, time 3 day) was 11.2 mg/dL and the Cl (72 h, time 3 day) was 106.4 meq/L. It also gave a DBIL (72 h, time 3 day) of 0.02 mg/dL, a GLC (72 h, time 3 day) of 171.4 mg/dL and an IP (72 h, time 3 day) of 6.3 mg/dL. It also gave a K (72 h, time 3 day) of 4.3 meq/L, an LDH (72 h, time 3 day) of 60.6 IU/L and a Na (72 h, time 3 day) of 142.2 meq/L. The PL (72 h, time 3 day) was 173.4 mg/dL, the RALB (72 h, time 3 day) was 2.7 g/dL and the TBIL (72 h, time 3 day) was 0.064 mg/dL. It also gave a TC (72 h, time 3 day) of 95.6 mg/dL, a TG (72 h, time 3 day) of 89.8 mg/dL and a TP (72 h, time 3 day) of 6 g/dL. It also gave a gamma-GTP (72 h, time 3 day) of 1.2 IU/L, a TERMINAL_BW ([…], time 7 day) of 261 g and a TERMINAL_BW ([…], time 14 day) of 311.5 g. It also gave a TERMINAL_BW ([…], time 28 day) of 401.5 g, an APTT ([…], time 7 day) of 15.7 s and a Bas ([…], time 7 day) of 0.2%. The Eos ([…], time 7 day) was 0.6%, the Fbg ([…], time 7 day) was 300.8 mg/dL and the Hb ([…], time 7 day) was 13 g/dL. For the same compound, the Ht ([…], time 7 day) was 38.5%, the Lym ([…], time 7 day) was 74.3% and the MCH ([…], time 7 day) was 20.4 pg. For the same compound, the MCHC ([…], time 7 day) was 33.7%, the MCV ([…], time 7 day) was 60.4 fL and the Mono ([…], time 7 day) was 2.4%. It also gave a Neu ([…], time 7 day) of 21.7%, a PT ([…], time 7 day) of 11.5 s and a Plat ([…], time 7 day) of 154.1 x10_4/uL. The RBC ([…], time 7 day) was 638 x10_4/ul, the Ret ([…], time 7 day) was 6.1% and the WBC ([…], time 7 day) was 97.1 x10_2/uL. The APTT ([…], time 14 day) was 15.2 s, the Bas ([…], time 14 day) was 0.2% and the Eos ([…], time 14 day) was 0.7%. It also gave a Fbg ([…], time 14 day) of 319.4 mg/dL, a Hb ([…], time 14 day) of 13.7 g/dL and a Ht ([…], time 14 day) of 39.7%. It also gave a Lym ([…], time 14 day) of 77.1%, an MCH ([…], time 14 day) of 19.7 pg and an MCHC ([…], time 14 day) of 34.6%. It also gave an MCV ([…], time 14 day) of 57 fL, a Mono ([…], time 14 day) of 2.2% and a Neu ([…], time 14 day) of 19.3%. It also gave a PT ([…], time 14 day) of 11.5 s, a Plat ([…], time 14 day) of 140.8 x10_4/uL and an RBC ([…], time 14 day) of 696.8 x10_4/ul. The Ret ([…], time 14 day) was 3.8%, the WBC ([…], time 14 day) was 87.1 x10_2/uL and the APTT ([…], time 28 day) was 19.5 s. It also gave a Bas ([…], time 28 day) of 0.5%, an Eos ([…], time 28 day) of 0.6% and a Fbg ([…], time 28 day) of 303.6 mg/dL. It also gave a Hb ([…], time 28 day) of 14.9 g/dL, a Ht ([…], time 28 day) of 41.2% and a Lym ([…], time 28 day) of 75.9%. For the same compound, the MCH ([…], time 28 day) was 19.7 pg, the MCHC ([…], time 28 day) was 36% and the MCV ([…], time 28 day) was 54.7 fL. It also gave a Mono ([…], time 28 day) of 1.7%, a Neu ([…], time 28 day) of 20.7% and a PT ([…], time 28 day) of 12.1 s. It also gave a Plat ([…], time 28 day) of 114.8 x10_4/uL, an RBC ([…], time 28 day) of 753.2 x10_4/ul and a Ret ([…], time 28 day) of 2.2%. The WBC ([…], time 28 day) was 131.8 x10_2/uL, the KIDNEY_L ([…], time 7 day) was 1 g and the KIDNEY_R ([…], time 7 day) was 1 g. For the same compound, the KIDNEY_TOTAL ([…], time 7 day) was 2.1 g, the KIDNEY_L ([…], time 14 day) was 1.1 g and the KIDNEY_R ([…], time 14 day) was 1.1 g. For the same compound, the KIDNEY_TOTAL ([…], time 14 day) was 2.2 g, the KIDNEY_L ([…], time 28 day) was 1.4 g and the KIDNEY_R ([…], time 28 day) was 1.3 g. For the same compound, the KIDNEY_TOTAL ([…], time 28 day) was 2.7 g, the LIVER ([…], time 7 day) was 13.6 g and the LIVER ([…], time 14 day) was 15.1 g. For the same compound, the LIVER ([…], time 28 day) was 18.5 g, the A/G ([…], time 7 day) was 0.8 and the ALP ([…], time 7 day) was 1426 IU/L. For the same compound, the ALT ([…], time 7 day) was 33.8 IU/L, the AST ([…], time 7 day) was 59.8 IU/L and the BUN ([…], time 7 day) was 15.2 mg/dL. The CRE ([…], time 7 day) was 0.2 mg/dL, the Ca ([…], time 7 day) was 11.3 mg/dL and the Cl ([…], time 7 day) was 105 meq/L. For the same compound, the DBIL ([…], time 7 day) was 0.018 mg/dL, the GLC ([…], time 7 day) was 176 mg/dL and the IP ([…], time 7 day) was 7.2 mg/dL. For the same compound, the K ([…], time 7 day) was 3.9 meq/L, the LDH ([…], time 7 day) was 61.2 IU/L and the Na ([…], time 7 day) was 142.8 meq/L. It also gave a PL ([…], time 7 day) of 163 mg/dL, an RALB ([…], time 7 day) of 2.7 g/dL and a TBIL ([…], time 7 day) of 0.054 mg/dL. For the same compound, the TC ([…], time 7 day) was 91 mg/dL, the TG ([…], time 7 day) was 100.2 mg/dL and the TP ([…], time 7 day) was 6.1 g/dL. It also gave a gamma-GTP ([…], time 7 day) of 1 IU/L, an A/G ([…], time 14 day) of 0.8 and an ALP ([…], time 14 day) of 1317.4 IU/L. It also gave an ALT ([…], time 14 day) of 34.6 IU/L, an AST ([…], time 14 day) of 58.6 IU/L and a BUN ([…], time 14 day) of 15.8 mg/dL. It also gave a CRE ([…], time 14 day) of 0.2 mg/dL, a Ca ([…], time 14 day) of 10.9 mg/dL and a Cl ([…], time 14 day) of 106.6 meq/L. For the same compound, the DBIL ([…], time 14 day) was 0.012 mg/dL, the GLC ([…], time 14 day) was 187 mg/dL and the IP ([…], time 14 day) was 6.5 mg/dL. For the same compound, the K ([…], time 14 day) was 3.5 meq/L, the LDH ([…], time 14 day) was 49.6 IU/L and the Na ([…], time 14 day) was 144.4 meq/L. The PL ([…], time 14 day) was 156.6 mg/dL, the RALB ([…], time 14 day) was 2.8 g/dL and the TBIL ([…], time 14 day) was 0.046 mg/dL. For the same compound, the TC ([…], time 14 day) was 88.2 mg/dL, the TG ([…], time 14 day) was 88.8 mg/dL and the TP ([…], time 14 day) was 6.3 g/dL. It also gave a gamma-GTP ([…], time 14 day) of 1.4 IU/L, an A/G ([…], time 28 day) of 0.7 and an ALP ([…], time 28 day) of 844.2 IU/L. The ALT ([…], time 28 day) was 32.8 IU/L, the AST ([…], time 28 day) was 52.6 IU/L and the BUN ([…], time 28 day) was 16.2 mg/dL. It also gave a CRE ([…], time 28 day) of 0.3 mg/dL, a Ca ([…], time 28 day) of 11 mg/dL and a Cl ([…], time 28 day) of 103.8 meq/L. The DBIL ([…], time 28 day) was 0.012 mg/dL, the GLC ([…], time 28 day) was 189.6 mg/dL and the IP ([…], time 28 day) was 6.1 mg/dL. For the same compound, the K ([…], time 28 day) was 3.5 meq/L, the LDH ([…], time 28 day) was 53.6 IU/L and the Na ([…], time 28 day) was 144.4 meq/L. The PL ([…], time 28 day) was 167.2 mg/dL, the RALB ([…], time 28 day) was 2.7 g/dL and the TBIL ([…], time 28 day) was 0.056 mg/dL. It also gave a TC ([…], time 28 day) of 91.4 mg/dL, a TG ([…], time 28 day) of 132 mg/dL and a TP ([…], time 28 day) of 6.5 g/dL. For the same compound, the gamma-GTP ([…], time 28 day) was 1.4 IU/L.
